# Measurements taken from PubChem BioAssay (NCI).
#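 Each compound was tested at five concentrations against cells in 96-well plates for 48 hours. TGI marks complete inhibition of growth.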
# Legend:
# Assay in all cases: inhibition of tumour cell growth, NCI panel, 48 h
# [1] = tested on: KM12 colon
# [2] = tested on: NCI-H460 lung
# [3] = tested on: NCI-H226 lung
# [4] = tested on: SK-MEL-28 melanoma
# [5] = tested on: HOP-92 NSCLC
# [6] = tested on: A498 renal
# [7] = tested on: SR leukemia
# [8] = tested on: HT29 colon
# [9] = tested on: RXF 393 renal
# [10] = tested on: NCI-H23 lung
# [11] = tested on: M19-MEL melanoma
# [12] = tested on: IGROV1 ovarian
# [13] = tested on: M14 melanoma
# [14] = tested on: HOP-62 NSCLC
# [15] = tested on: HL-60(TB) leukemia
# [16] = tested on: OVCAR-8 ovarian
# [17] = tested on: UACC-257 melanoma
# [18] = tested on: A549 NSCLC
# [19] = tested on: NCI-H522 lung
# [20] = tested on: SF-268 CNS
# [21] = tested on: OVCAR-5 ovarian
# [22] = tested on: SNB-19 CNS
# [23] = tested on: DMS 114 small cell lung
# [24] = tested on: SK-OV-3 ovarian
# [25] = tested on: SF-295 CNS
# [26] = tested on: SNB-78 CNS
# [27] = tested on: MOLT-4 leukemia
# [28] = tested on: UACC-62 melanoma
# [29] = tested on: HCT-116 colon
# [30] = tested on: TK-10 renal
# [31] = tested on: U251 CNS
# [32] = tested on: EKVX NSCLC
# [33] = tested on: UO-31 renal
# [34] = tested on: CCRF-CEM leukemia
# [35] = tested on: RXF-631 renal
# [36] = tested on: XF 498 CNS
# [37] = tested on: RPMI-8226 leukemia
# [38] = tested on: SF-539 CNS
# [39] = tested on: 786-0 renal
# [40] = tested on: DLD-1 colon
# [41] = tested on: CAKI-1 renal
# [42] = tested on: SN12C renal
# [43] = tested on: COLO 205 colon
# [44] = tested on: OVCAR-3 ovarian
# [45] = tested on: SW-620 colon
# [46] = tested on: HCC-2998 colon
# [47] = tested on: DMS 273 small cell lung
# [48] = tested on: SK-MEL-5 melanoma
# [49] = tested on: OVCAR-4 ovarian
# [50] = tested on: KM20L2 colon
# [51] = tested on: SK-MEL-2 melanoma
# [52] = tested on: SNB-75 CNS
# [53] = tested on: LOX IMVI melanoma
# [54] = tested on: K-562 leukemia
# [55] = tested on: ACHN renal
# [56] = tested on: MALME-3M melanoma
# [57] = tested on: LXFL 529 NSCLC
# [58] = tested on: HCT-15 colon
smiles,measurement,setting,value
CC1(Cl)CCC2(CC(Br)=CC3OC32C)CC1Br (stereo not given),TGI,[1],> 100 µM
same,TGI,[2],71.1 µM
same,TGI,[3],47.3 µM
same,TGI,[4],69.9 µM
same,TGI,[5],78.8 µM
same,TGI,[6],68.8 µM
same,TGI,[7],55.8 µM
same,TGI,[8],57 µM
same,TGI,[9],40.8 µM
same,TGI,[10],49.9 µM
same,TGI,[11],81.2 µM
same,TGI,[12],> 100 µM
same,TGI,[13],> 100 µM
same,TGI,[14],87.4 µM
same,TGI,[15],38.7 µM
same,TGI,[16],91.7 µM
same,TGI,[17],42.4 µM
same,TGI,[18],> 100 µM
same,TGI,[19],55.5 µM
same,TGI,[20],50.1 µM
same,TGI,[21],> 100 µM
same,TGI,[22],> 100 µM
same,TGI,[23],83.2 µM
same,TGI,[24],> 100 µM
same,TGI,[25],57.6 µM
same,TGI,[26],86.6 µM
same,TGI,[27],52.4 µM
same,TGI,[28],42.7 µM
same,TGI,[29],40.2 µM
same,TGI,[30],> 100 µM
same,TGI,[31],41.8 µM
same,TGI,[32],> 100 µM
same,TGI,[33],66.6 µM
same,TGI,[34],53.5 µM
COC(=O)c1c(N)n[nH]c1N,TGI,[1],> 100 µM
same,TGI,[2],> 100 µM
same,TGI,[4],> 100 µM
same,TGI,[5],> 100 µM
same,TGI,[6],> 100 µM
same,TGI,[7],> 100 µM
same,TGI,[35],> 100 µM
same,TGI,[9],> 100 µM
same,TGI,[36],> 100 µM
same,TGI,[37],> 100 µM
same,TGI,[38],> 100 µM
same,TGI,[10],> 100 µM
same,TGI,[11],> 100 µM
same,TGI,[12],> 100 µM
same,TGI,[39],> 100 µM
same,TGI,[40],> 100 µM
same,TGI,[13],> 100 µM
same,TGI,[41],> 100 µM
same,TGI,[42],> 100 µM
same,TGI,[14],> 100 µM
same,TGI,[15],> 100 µM
same,TGI,[16],> 100 µM
same,TGI,[17],> 100 µM
same,TGI,[18],> 100 µM
same,TGI,[19],> 100 µM
same,TGI,[20],> 100 µM
same,TGI,[43],> 100 µM
same,TGI,[44],> 100 µM
same,TGI,[22],> 100 µM
same,TGI,[45],> 100 µM
same,TGI,[46],> 100 µM
same,TGI,[24],> 100 µM
same,TGI,[47],> 100 µM
same,TGI,[25],> 100 µM
same,TGI,[48],> 100 µM
same,TGI,[26],> 100 µM
same,TGI,[27],> 100 µM
same,TGI,[49],> 100 µM
same,TGI,[50],> 100 µM
same,TGI,[28],> 100 µM
same,TGI,[51],> 100 µM
same,TGI,[29],> 100 µM
same,TGI,[52],> 100 µM
same,TGI,[30],> 100 µM
same,TGI,[53],> 100 µM
same,TGI,[31],> 100 µM
same,TGI,[32],> 100 µM
same,TGI,[33],> 100 µM
same,TGI,[34],> 100 µM
same,TGI,[54],> 100 µM
O=[N+]([O-])c1cccc(-c2oc(C=Nc3ccccc3)c([N+](=O)[O-])c2-c2cccc([N+](=O)[O-])c2)c1,TGI,[1],> 100 µM
same,TGI,[2],> 100 µM
same,TGI,[55],> 100 µM
same,TGI,[3],> 100 µM
same,TGI,[4],> 100 µM
same,TGI,[56],> 100 µM
same,TGI,[5],> 100 µM
same,TGI,[6],> 100 µM
same,TGI,[35],> 100 µM
same,TGI,[8],> 100 µM
same,TGI,[9],> 100 µM
same,TGI,[37],> 100 µM
same,TGI,[38],> 100 µM
same,TGI,[10],> 100 µM
same,TGI,[11],> 100 µM
same,TGI,[12],> 100 µM
same,TGI,[39],> 100 µM
same,TGI,[40],> 100 µM
same,TGI,[13],> 100 µM
same,TGI,[14],> 100 µM
same,TGI,[15],> 100 µM
same,TGI,[16],> 100 µM
same,TGI,[17],> 100 µM
same,TGI,[18],> 100 µM
same,TGI,[19],> 100 µM
same,TGI,[20],> 100 µM
same,TGI,[43],> 100 µM
same,TGI,[21],> 100 µM
same,TGI,[44],> 100 µM
same,TGI,[45],> 100 µM
same,TGI,[46],> 100 µM
same,TGI,[23],> 100 µM
same,TGI,[24],> 100 µM
same,TGI,[47],> 100 µM
same,TGI,[25],> 100 µM
same,TGI,[48],> 100 µM
same,TGI,[26],> 100 µM
same,TGI,[27],> 100 µM
same,TGI,[50],> 100 µM
same,TGI,[28],> 100 µM
same,TGI,[51],> 100 µM
same,TGI,[29],> 100 µM
same,TGI,[57],> 100 µM
same,TGI,[52],> 100 µM
same,TGI,[30],> 100 µM
same,TGI,[53],> 100 µM
same,TGI,[31],> 100 µM
same,TGI,[32],> 100 µM
same,TGI,[33],> 100 µM
same,TGI,[34],> 100 µM
same,TGI,[54],> 100 µM
CC(C)C(C)C(C)(C)P(C)(C)=O (stereo not given),TGI,[1],> 100 µM
same,TGI,[2],> 100 µM
same,TGI,[55],> 100 µM
same,TGI,[3],> 100 µM
same,TGI,[4],> 100 µM
same,TGI,[56],> 100 µM
same,TGI,[58],> 100 µM
same,TGI,[8],> 100 µM
same,TGI,[9],> 100 µM
same,TGI,[36],> 100 µM
same,TGI,[38],> 100 µM
same,TGI,[10],> 100 µM
same,TGI,[11],> 100 µM
same,TGI,[40],> 100 µM
same,TGI,[13],> 100 µM
same,TGI,[42],> 100 µM
same,TGI,[14],> 100 µM
same,TGI,[17],> 100 µM
same,TGI,[20],> 100 µM
same,TGI,[21],> 100 µM
same,TGI,[44],> 100 µM
same,TGI,[22],> 100 µM
same,TGI,[46],> 100 µM
same,TGI,[23],> 100 µM
same,TGI,[24],> 100 µM
same,TGI,[26],> 100 µM
same,TGI,[49],> 100 µM
same,TGI,[50],> 100 µM
same,TGI,[28],> 100 µM
same,TGI,[51],> 100 µM
same,TGI,[29],> 100 µM
same,TGI,[57],> 100 µM
same,TGI,[52],> 100 µM
same,TGI,[30],> 100 µM
same,TGI,[53],> 100 µM
same,TGI,[31],> 100 µM
same,TGI,[32],> 100 µM
same,TGI,[33],> 100 µM
COc1ccc(/C=c2\sc3n(c2=O)C(N)=C(C#N)C(c2ccc(OC)cc2)C=3c2nc3ccccc3[nH]2)cc1 (stereo not given),TGI,[1],31 µM
same,TGI,[2],40.9 µM
same,TGI,[55],> 100 µM
same,TGI,[3],49.2 µM
same,TGI,[4],56.1 µM
same,TGI,[56],42.2 µM
same,TGI,[5],70 µM
same,TGI,[6],> 100 µM
same,TGI,[7],> 100 µM
same,TGI,[58],59.2 µM
same,TGI,[37],> 100 µM
same,TGI,[10],20.2 µM
same,TGI,[11],63.8 µM
same,TGI,[12],> 100 µM
same,TGI,[39],> 100 µM
same,TGI,[13],> 100 µM
same,TGI,[41],42.9 µM
same,TGI,[42],> 100 µM
same,TGI,[14],> 100 µM
same,TGI,[15],> 100 µM
same,TGI,[17],78.8 µM
same,TGI,[18],> 100 µM
same,TGI,[19],> 100 µM
same,TGI,[20],> 100 µM
same,TGI,[43],> 100 µM
same,TGI,[21],67.5 µM
same,TGI,[44],44.3 µM
same,TGI,[22],> 100 µM
same,TGI,[45],83.6 µM
same,TGI,[46],64.3 µM
same,TGI,[23],72.9 µM
same,TGI,[47],> 100 µM
same,TGI,[48],36.8 µM
same,TGI,[27],> 100 µM
same,TGI,[49],> 100 µM
same,TGI,[50],> 100 µM
same,TGI,[28],> 100 µM
same,TGI,[51],61.5 µM
same,TGI,[29],64.1 µM
same,TGI,[52],> 100 µM
same,TGI,[30],66.5 µM
same,TGI,[53],35.2 µM
same,TGI,[31],34.4 µM
same,TGI,[32],56.2 µM
same,TGI,[33],> 100 µM
same,TGI,[34],> 100 µM
same,TGI,[54],> 100 µM
